Molecules are shown by their SMILES. The source made the active and inactive calls.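 How the source made its calls: active means mean half-maximal activating concentration from the dose-response fit at or below a set limit; inactive means the rest.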

This assay deals with CHO-XBP1 luciferase reporter, IRE1-XBP1 UPR activation. The assay can be described thus: activators of IRE1-XBP1 UPR arm, dose response, counter-screen for apoptotic UPR arm activators, CHO-XBP1 cells, luminescence (AID 489040).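 Further: reporter read after six hours of compound exposure.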 In general terms: The purpose of a counterscreen is to sort out artefacts and off-target activity.
Consider `COc1ccccc1N1CCN(Cc2ccc(O)c3ncccc23)CC1`, for which the EC50 – broadly, the concentration that produces a half-maximal response – is > 80 µM (inactive).
As for `O=C(CSC(=S)N1CCCC1)c1cc(Br)cc(Br)c1O`, the EC50 was > 80 µM (inactive).
Turning to `Cc1cc(N2CCN(c3ccc([N+](=O)[O-])c4cccnc34)CC2)c2ccccc2n1`, the EC50 was > 80 µM (inactive).
Take `O=C(Nc1ccc(Cl)cc1)/C(=C/c1cccc(O)c1)c1nc2ccccc2s1`: the EC50 was > 80 µM (inactive).
Consider `CCc1ccc(NC(=O)C(CC)Sc2nc3cc4c(cc3c(=O)n2Cc2ccco2)OCO4)cc1` (stereo not drawn), for which the EC50 was > 80 µM (inactive).
For `CC(C)(C)C(=O)OCc1nc(-c2ccc(O)c(O)c2)cs1`, the EC50 was > 80 µM (inactive).
Consider `COc1ccc(N=c2oc3c(OC)cccc3cc2C(=O)NCc2ccco2)cc1OC`, for which the EC50 is > 80 µM (inactive).
As for `CCc1cccc2sc(N3CCN(C(=O)c4ccc([N+](=O)[O-])o4)CC3)nc12`, the figure is > 80 µM (inactive).

Values taken from PubChem BioAssay AID489040 (Sanford-Burnham Center for Chemical Genomics, 2010).
